“And” between values parts separate entries of the source, which are not always exact repeats. Identical values can stand only once. Like-named read-outs stand apart in the source and are kept apart here.
Assay: Mice pharmacokinetic evaluation (LC-MS/MS of plasma)
Assay type: in vivo, ICR mice
Conditions: for Cmax: read-out: Cmax; for Plasma concentration of active compound: listed as Mol
Method: Mice pharmacokinetic evaluation of the compound of Example 36 according to the method described below
ICR mice, SPS grade, male, weighed […], license number SCXK (Beijing) 2012-0001, purchased from Beijing Vital River Laboratory Animal Technology Co. Ltd.
Chromatographic conditions: Analytical column: Capcell Pak MG, 5 μm particle size, 50×2.0 mm I.D. (Shiseido Co.), connected with C18 guard column, 4×3.0 mm I.D. (PhenomenexCo., USA), column temperature 25° C., mobile phase: acetonitrile −2 mM ammonium acetate (65:35, v/v), flow rate 0.3 ml/min, internal standard: loratadine.
MS conditions: Electrospray ionization source (Turbo Ionspray source), positive ion mode detection; spray voltage 4500 V; source temperature 400° C.; nebulizer gas (NEB) 8; curtain gas (CUR) 10; collision gas (CAD) 4; scanning mode: multiple reaction monitoring (MRM), ion reactions for quantitative analysis: m/z 354.4→m/z 154.1 (Mol, CE 43 V) and m/z 383→m/z 337 (internal standard loratadine, CE 32 V), scanning time 150 msec.
To 50 μl of plasma, were added 10 μl of internal standard solution (125 ng/ml aqueous solution of loratadine), and 500 μl of n-hexane-dichloromethane-isopropanol (100:50:5, v/v/v); they were uniformly mixed, followed by vortexing for 3 min, and centrifuging for 10 min (3000 rpm); the supernatant was taken and blow dried with air streamat 40° C.; the residue was dissolved with 150 μl […], and subjected to LC-MS/MS analysis.
30 ICR male mice were randomly divided into […], five mices each group, including Mol 10 mg/kg oral group and 1.0 mg/kg tail intravenous injection group. For oral group, before administration, the animals were fasted for 12 h, with free access to water; 0.08, 0.25, 0.5, 1, 2, 4, 6, 8, 12 and 24 h after intragastrical administration, 0.1 ml of orbital venous sinus blood was taken, placed in anticoagulation tube containing heparin sodium, and subjected to 3000 g centrifugation for 15 min; and then, the plasma was taken and stored in a −20° C. refrigerator. […]
Pharmacokinetic parameters were calculated using non-compartment model of Winnonlin® software (Version 5.2.1, USA). Cmax is the measured maximum plasma concentration, Tmax is time to peak plasma concentration after oral administration, t1/2 is drug terminal elimination halflife, MRT is average residence time of drug in vivo, the area AUC0-t under plasma concentration—time curve is calculated by trapezoidal method.
Bioavailability is calculated as follows: […]
AUC: Area (h*ng/ml) under the curve; D: dose (mg/kg)

[1] = male, ICR, mouse, plasma, po, 10 mg/kg, Po 10 mg/kg, Mean ± SD, n = 3
[2] = male, ICR, mouse, plasma, po, 10 mg/kg, Po 10 mg/kg, individual mice 1-3
[3] = male, ICR, mouse, plasma, po, 10 mg/kg, oral 10 mg/kg, Mean, read-out: Plasma concentration of active compound
[4] = male, ICR, mouse, plasma, po, 10 mg/kg, oral 10 mg/kg, individual mice 1-3, read-out: Plasma concentration of active compound

CSc1nccc(N2CCC(N(C)Cc3ccc(C#N)cc3)CC2)n1 [Example 36, N-methyl-N-(4-cyanobenzyl)-N-[1-(2-methylthiopyrimidin-4-yl)piperidin-4-yl]amine] gave a concentration at 0.17 h (male, ICR, mouse, plasma, iv, 1 mg/kg, intravenous 1.0 mg/kg, Mean, read-out: Plasma concentration of active compound) of 62.8 ng/mL, a concentration at 0.17 h (male, ICR, mouse, plasma, iv, 1 mg/kg, intravenous 1.0 mg/kg, individual mice 4-6, read-out: Plasma concentration of active compound) of 79.6 ng/mL and a concentration at 0.5 h (male, ICR, mouse, plasma, iv, 1 mg/kg, intravenous 1.0 mg/kg, 0.5 h, Mean, read-out: Plasma concentration of active compound) of 31.5 ng/mL. For the same molecule, the concentration at 1 h (male, ICR, mouse, plasma, iv, 1 mg/kg, intravenous 1.0 mg/kg, 1.0 h, Mean, read-out: Plasma concentration of active compound) was 7.02 ng/mL, the concentration at 2 h (male, ICR, mouse, plasma, iv, 1 mg/kg, intravenous 1.0 mg/kg, 2.0 h, Mean, read-out: Plasma concentration of active compound) was 1.77 ng/mL and the concentration at 4 h (male, ICR, mouse, plasma, iv, 1 mg/kg, intravenous 1.0 mg/kg, 4.0 h, Mean, read-out: Plasma concentration of active compound) was 2.26 ng/mL. It also gave a concentration at 4 h (male, ICR, mouse, plasma, iv, 1 mg/kg, intravenous 1.0 mg/kg, 4.0 h, individual mice 4-6, read-out: Plasma concentration of active compound) of 2.3 ng/mL, a concentration at 6 h (male, ICR, mouse, plasma, iv, 1 mg/kg, intravenous 1.0 mg/kg, 6.0 h, Mean, read-out: Plasma concentration of active compound) of 7.53 ng/mL and a concentration at 6 h (male, ICR, mouse, plasma, iv, 1 mg/kg, intravenous 1.0 mg/kg, 6.0 h, individual mice 4-6, read-out: Plasma concentration of active compound) of 7.53 ng/mL. For the same molecule, the concentration at 8 h (male, ICR, mouse, plasma, iv, 1 mg/kg, intravenous 1.0 mg/kg, 8.0 h, Mean, read-out: Plasma concentration of active compound) was 0.84 ng/mL, the concentration at 8 h (male, ICR, mouse, plasma, iv, 1 mg/kg, intravenous 1.0 mg/kg, 8.0 h, individual mice 4-6, read-out: Plasma concentration of active compound) was 0.7 ng/mL and the bioavailability (male, ICR, mouse, plasma, oral, 10 mg/kg, Po 10 mg/kg vs IV 1.0 mg/kg, Mean ± SD, n = 3, read-out: F (absolute bioavailability)) was 55.5 ± 10.9%. For the same molecule, the AUC(0-inf) [1] was 280 ± 55.8 ng·h/mL, the AUC(0-t) [1] was 275 ± 54.1 ng·h/mL and the half-life [1] was 2.72 ± 2.47 h. The Cmax [1] was 260 ± 63.2 ng/mL, the MRT last (male, ICR, mouse, plasma, po, 10 mg/kg, Po 10 mg/kg, Mean ± SD, n = 3, read-out: MRT0-t) was 1.58 ± 0.86 h and the MRT inf (male, ICR, mouse, plasma, po, 10 mg/kg, Po 10 mg/kg, Mean ± SD, n = 3, read-out: MRT0-∞) was 1.95 ± 1.42 h. It also gave a Tmax (male, ICR, mouse, plasma, po, 10 mg/kg, Po 10 mg/kg, Mean ± SD, n = 3, read-out: Tmax) of 0.44 ± 0.49 h, an AUC(0-inf) [2] of 216 ng·h/mL and an AUC(0-t) [2] of 214 ng·h/mL. The Cmax [2] was 197 ng/mL, the concentration at 0.08 h (male, ICR, mouse, plasma, po, 10 mg/kg, oral 10 mg/kg, 0.08 h, Mean, read-out: Plasma concentration of active compound) was 141 ng/mL and the concentration at 0.25 h (male, ICR, mouse, plasma, po, 10 mg/kg, oral 10 mg/kg, 0.25 h, Mean, read-out: Plasma concentration of active compound) was 203 ng/mL. It also gave a concentration at 0.5 h (male, ICR, mouse, plasma, po, 10 mg/kg, oral 10 mg/kg, 0.50 h, Mean, read-out: Plasma concentration of active compound) of 97.5 ng/mL, a concentration at 1 h (male, ICR, mouse, plasma, po, 10 mg/kg, oral 10 mg/kg, 1.0 h, Mean, read-out: Plasma concentration of active compound) of 147 ng/mL and a concentration at 2 h (male, ICR, mouse, plasma, po, 10 mg/kg, oral 10 mg/kg, 2.0 h, Mean, read-out: Plasma concentration of active compound) of 23.5 ng/mL. For the same molecule, the concentration at 4 h (male, ICR, mouse, plasma, po, 10 mg/kg, oral 10 mg/kg, 4.0 h, Mean, read-out: Plasma concentration of active compound) was 7.75 ng/mL, the concentration at 6 h (male, ICR, mouse, plasma, po, 10 mg/kg, oral 10 mg/kg, 6.0 h, Mean, read-out: Plasma concentration of active compound) was 7.36 ng/mL and the concentration at 8 h (male, ICR, mouse, plasma, po, 10 mg/kg, oral 10 mg/kg, 8.0 h, Mean, read-out: Plasma concentration of active compound) was 2.71 ng/mL. For the same molecule, the concentration at 12 h [3] was 0.5 ng/mL, the concentration at 12 h [4] was 0.5 ng/mL and the concentration at 24 h [3] was 1.32 ng/mL. For the same molecule, the concentration at 24 h [4] was 1.32 ng/mL, the “Plasma concentration of active compound” value (oral 10 mg/kg, 0.08 h, individual mice 1-3, 10 mg/kg) was 196.99 ng/mL and 152.22 ng/mL and 72.70 ng/mL and the “Plasma concentration of active compound” value (oral 10 mg/kg, 0.25 h, individual mice 1-3, 10 mg/kg) was 126.87 ng/mL and 158.18 ng/mL and 323.37 ng/mL. The “Plasma concentration of active compound” value (oral 10 mg/kg, 0.50 h, individual mice 1-3, 10 mg/kg) was 41.24 ng/mL and 119.50 ng/mL and 131.86 ng/mL, the “Plasma concentration of active compound” value (oral 10 mg/kg, 1.0 h, individual mice 1-3, 10 mg/kg) was 107.54 ng/mL and 260.48 ng/mL and 71.98 ng/mL and the “Plasma concentration of active compound” value (oral 10 mg/kg, 2.0 h, individual mice 1-3, 10 mg/kg) was 33.99 ng/mL and 12.86 ng/mL and 23.69 ng/mL. The “Plasma concentration of active compound” value (oral 10 mg/kg, 4.0 h, individual mice 1-3, 10 mg/kg) was 7.47 ng/mL and 1.17 ng/mL and 14.60 ng/mL, the “Plasma concentration of active compound” value (oral 10 mg/kg, 6.0 h, individual mice 1-3, 10 mg/kg) was 1.28 ng/mL and 13.43 ng/mL and the “Plasma concentration of active compound” value (oral 10 mg/kg, 8.0 h, individual mice 1-3, 10 mg/kg) was 0.54 ng/mL and 4.88 ng/mL.

Reference: patent US10023565B2, “N,N′ substituted piperidinamine compounds, and preparation method and usage thereof” (Institute of Pharmacology and Toxicology Academy of …, priority 2013, dated 2018)
